Test results taken from patent US20050256179A1, “Selective pharmacologic inhibition of protein trafficking and related methods of treating human diseases” (priority 2003, published 2005).
In brackets after ≈: the same amount, converted by molar mass.

Assays:
HCC 1806 = assay: Inhibition of tumor cell proliferation in vitro (SRB total protein); assay type: cell-based; settings: in-house head-to-head, about 72 hours
Experimental: (§1) For a typical screening experiment, cells are inoculated into 96 well microtiter plates in 100 μl at plating densities ranging from 5,000 to 40,000 cells/well depending on the doubling time of individual cell lines. After cell inoculation, the microtiter plates are incubated at 37° C., 5% or 10% CO2—depending on the cell line and media—95% air and 100% relative humidity for 24 h prior to addition of experimental drugs. After 24 h, two plates of each cell line are fixed in situ with TCA, to represent a measurement of the cell population for each cell line at the time of drug addition. Following drug addition, the plates are incubated for an additional 48 h at 37° C., 5%/10% CO2, 95% air, and 100% relative humidity. For adherent cells, the assay is terminated by the addition of cold TCA. Cells are fixed in situ by the gentle addition of 50 μl of cold 50% (w/v) TCA (final concentration, 10% TCA) and incubated for 60 minutes at 4° C. The supernatant is discarded, and the plates are washed five times with tap water and air-dried. Sulforhodamine B (SRB) solution (10011) at 0.4% (w/v) in 1% acetic acid is added to each well, and plates are incubated for 10 minutes at room temperature. After staining, unbound dye is removed by washing five times with 1% acetic acid and the plates are air-dried. Bound stain is subsequently solubilized with 10 mM trizma base, and the absorbance is read on an automated plate reader at a wavelength of 515 nm. For suspension cells, the methodology is the same except that the assay is terminated by fixing settled cells at the bottom of the wells by gently adding 50 μl of 80% TCA (final concentration, 16% TCA). Using the seven absorbance measurements [time zero, control growth, and test growth in the presence of drug at the five concentration levels], the percentage growth is calculated at each of the drug concentrations levels.
(§2) Brefeldin A was tested by the NCI for inhibition of tumor cell proliferation in the 60-cell screen. The NCI 60-cell screen was performed essentially as described for FIG. 9. Data available from the NCI database for Brefeldin A was compared with more recent AVP 893 data. […] Several tumor cell lines were cultured in the presence of either AVP 893 or Brefeldin A for about 72 hours before assessing proliferation response by measuring total protein (SRB), as described for FIG. 9. The results of the head-to-head comparisons performed in-house also show substantial variation in the relative proliferative responses of cells to Brefeldin A and AVP 893 in vitro (TABLE 3).

Hs578T = assay: as above; assay type: cell-based; settings: in-house head-to-head, about 72 hours, SRB
Experimental: as §1, §2

MOLT-4 = assay: as above; assay type: cell-based; settings: in-house head-to-head, about 72 hours, SRB
Experimental: as §1, §2

NCI H-460 = assay: as above; assay type: cell-based; settings: in-house head-to-head, about 72 hours, SRB
Experimental: as §1, §2

GS28 = GS28 expression by Western blotting; assay type: cell-based; settings: MOLT4, Hs578T, H-460, overnight
Experimental: The culture medium was removed by vacuuming (for attached cells) or by low speed centrifugation (for suspension cells) for 5-7 minutes at room temperature. The cells were wasedh twith PBS, spun at 1200 rpm and the cell pellets were kept on ice. 300 μl/2.0×10^7 cells of ice cold lysis buffer was added with freshly added protease inhibitors. Cell pellets were gently resuspended and incubated on ice for at least 30 min, vortexed a few times during incubation. Cell lysate was spun at 14,000 rpm for 2-5 min at 4° C. The supernatant was transferred to a new microfuge tube and the pellet was discarded. An aliquot of sample was mixed with an equal volume of 2× sample buffer (InVitrogen), and stored at −80° C. Protein concentration was determined by using “BCA protein assay reagent kit” from Pierce.
Protein samples (in sample buffer) were boiled for 1-3 minutes and put on ice. Same amount of protein were loaded on the NuPage gel (InVitrogen). After the electrophoresis was complete, proteins were transferred from the gel to a PVDF membrane using the electro-blotting apparatus from InVitrogen; the voltage was set to 25 for 2-3 hr. Block non-specific binding by incubating membrane with 5% milk (in PBS, 0.1% tween 20) for at least 30 min at room temperature or overnight at 4° C. The blocked membrane was incubated with primary antibody (See TABLE 2) diluted in 5% milk for 1 hour at room temperature. Optimal antibody dilution depends on the company, the amount of protein. Dilutions of 1:1000 were generally used for the primary antibodies from Santa Cruz. The membrane was washed with PBS, 0.1% tween 3-4 times 5 mins. The membrane was incubated for 30-60 minutes at room temperature with horseradish peroxidase (HRP) conjugated secondary antibody diluted in 5% milk. We usually used 1:4000 dilution for the secondary antibody from Santa Cruz. The membrane was washed 3-4 times with PBS, 0.1% tween, each time 15 minutes. The detection solutions A and B were mixed in a ratio 40:1 and Pipetted onto the membrane, and incubated for 5 min at RT. A sheet of Hyper film ECL was placed on the top of the membrane in the dark and exposed for 1 min, or adjust accordingly.
To further examine the putative protein trafficking effects of AVP 893, other proteins in this pathway were tested in vitro in B16 and other cell lines. The effect of AVP 893 on cellular proteins was corroborated in B16 cells and extended to include a time-course (FIG. 17). B16-F10 tumor cells were seeded in T75 flasks at 20% confluence and cultured overnight. AVP 893 (100 ng/ml) was added to several flasks and one flask of cells was harvested at several time points following addition of compound. Lysates were prepared, separated by electrophoresis, and probed with antibody as described above in the general Western blotting protocol. Drug effects on GS28 and nicastrin paralleled each other and were progressively stronger with longer drug incubations. […] Other cell lines were tested for their expression of GS28 and nicastrin and found to respond similarly to drug, although quantitative differences were evident. Tumor cell lines found to respond similarly to AVP 893 include CAK1, SF295, PC3, MOLT4, Neuro2a, and RBL (FIGS. 18, 19, and 20). For the experiment shown in FIG. 18, LOX, CAKI, and 3T3 cell lines were treated as described for FIG. 17. For the results shown in FIG. 19, SF295, PC3, MOLT-4, and Neuro2a cells were treated as described for FIG. 17. For the results shown in FIG. 20, LOX, 3T3, and RBL cell lines were treated with varying concentrations of AVP 893 as described for FIG. 17. The effects on LOX cells were less evident. […] Levels of calnexin, a resident ER protein used as a control, were unchanged in drug-treated cells.

Mannosidase II = Mannosidase II immunocytochemistry; assay type: cell-based; settings: 1 hr of treatment, immunocytochemistry
Experimental: GS15, GS28, GPP130, and Mannosidase II, sparing the golgi structural protein GM-130 and having little effect on the Rab GTPase Rab6. Furthermore, these affects were most pronounced following overnight (16-20 hr) incubations with AVP 893, although some affects at early time points were seen. These conclusions were drawn from the western blot analysis (FIG. 29), as well as from the immunocytochemical studies (FIGS. 30-31).
Additional evidence that AVP 893 has unique activity against resident golgi proteins (e.g. Mannosidase II), was found using both shorter durations of drug exposure and immunocytochemistry instead of western blot analysis (FIG. 43).

[1] = tested on: tumor cell lines (NCI 60-cell screening panel); settings: NCI 60-cell screen, data from the NCI database; cited from earlier work
60 kinase assays = assay: Kinase and biochemical assay screens (Upstate panel); settings: concentrations of less than 1 μg/ml; 1 μM in 60 kinase assays
Text: In an effort to understand how these compounds might be acting at the cellular and molecular level, several screens of drug activity were initiated. The first 2 screens were designed to test the activity of drug on certain binding events and the activity of a variety of enzymes in vitro (FIGS. 14 and 15).

[2] = tested on: T cells from mouse spleen and human PBL; assay: T cell cytokine responses in vitro (Luminex beads); assay type: cell-based
Text: These series of compounds were initially identified on the basis of their IgE-blocking activity in an ex vivo IgE response protocol (FIG. 2), and the biological activity of all analogs are characterized on the basis of their activity in this assay. Activity in the ex vivo assay is corroborated in the in vitro assay of B cell response to 1L-4/anti-CD40 Ab-stimulated IgE in human PBL (FIG. 3) using standard procedures, and mouse splenic B cells (not shown). Drug action on T cells was shown by testing T cell cytokine responses to various stimuli in vitro. The response of a cadre of cytokines and chemokines to several alternative stimuli was tested in T cells from both mouse spleen and human PBL. T cells were isolated from murine spleen and cultured for 16 hours in the presence of stimulus+/−AVP 13358. Supernatants were quantified for cytokines using Luminex beads. All cytokines achieved levels of at least 200 pg/ml and 10-fold higher than background (FIG. 4). T cells were isolated from donor PBL and cultured for 16-36 hours in the presence of Phytohemaglutin (PHA, 5 μg/ml) and ConA (5 μg/ml)+/−AVP 13358. Supernatants were quantified for cytokines using Luminex beads (FIG. 5). […] Total protein was assessed by the SRB assay, as adopted for many of the proliferation experiments outline below.

[3] = tested on: CD23 and the IL-4 receptor on murine B cells and human monocytes; assay: Induction of CD23 and IL-4 receptor expression; assay type: cell-based, mouse; settings: murine B cells and human monocytes in vitro
[4] = tested on: rat basophilic leukemia (RBL) cells; assay: Degranulation of RBL cells; assay type: cell-based; settings: induced with PMA/ionomycin or IgE-antigen complexes, not shown
Text: The proposed mechanism of the AVP compounds on intracellular protein transit also allows certain predictions as to other effects and non-effects that these compounds might share. For example, inhibition of vesicle fusion or budding between the ER and golgi should not affect exocytosis as would be expected of a post-golgi active compound such as Monensin. AVP 893 has minimal effects on the expression of proteins involved in exocytosis, particularly VAMP, SNAP23 (non-neuronal cells), and SNAP25 (neuronal cells).

| Compound | IC50 (HCC 1806) | IC50 (Hs578T) | IC50 (MOLT-4) | IC50 (NCI H-460) | GS28 expression (GS28) | Mannosidase II staining pattern (Mannosidase II) | concentrations inhibiting proliferation of virtually all cells [1] | activity in kinase and biochemical assays (60 kinase assays) | IL-1 levels ([2]; in vitro) | levels of cytokines including IL-4, IL-5, IL-13 ([2]; stimulated T cells, 16-36 hours) | induction of CD23 and IL-4 receptor [3] | degranulation [4] |
| --- | --- | --- | --- | --- | --- | --- | --- | --- | --- | --- | --- | --- |
| C[C@H]1CCC/C=C/[C@@H]2C[C@H](O)C[C@H]2[C@H](O)/C=C/C(=O)O1 [Brefeldin A, reference compound] | 0.03 µg/mL (≈ 0.107 µM) | 0.1 µg/mL (≈ 0.357 µM) | 0.003 µg/mL (≈ 0.0107 µM) | 0.005 µg/mL (≈ 0.0178 µM) | variable effects | completely dispersed | 10 to 100 nM |  |  |  |  |  |
| O=C(Nc1ccccn1)c1ccc2[nH]c(-c3ccc(NC(=O)C45C[C@H]6C[C@@H](C4)C[C@@H](C5)C6)cc3)nc2c1 [AVP 13358] |  |  |  |  |  |  |  | no drug activity was observed | does not affect IL-1 levels | potently suppressed the levels of most cytokines | potently blocked the induction of these receptors | does not inhibit degranulation |
